In data set [1] the target is T1, Relaxin receptor 1 (Homo sapiens) (UniProt Q9HBX9).
T1 sequence (whole entry): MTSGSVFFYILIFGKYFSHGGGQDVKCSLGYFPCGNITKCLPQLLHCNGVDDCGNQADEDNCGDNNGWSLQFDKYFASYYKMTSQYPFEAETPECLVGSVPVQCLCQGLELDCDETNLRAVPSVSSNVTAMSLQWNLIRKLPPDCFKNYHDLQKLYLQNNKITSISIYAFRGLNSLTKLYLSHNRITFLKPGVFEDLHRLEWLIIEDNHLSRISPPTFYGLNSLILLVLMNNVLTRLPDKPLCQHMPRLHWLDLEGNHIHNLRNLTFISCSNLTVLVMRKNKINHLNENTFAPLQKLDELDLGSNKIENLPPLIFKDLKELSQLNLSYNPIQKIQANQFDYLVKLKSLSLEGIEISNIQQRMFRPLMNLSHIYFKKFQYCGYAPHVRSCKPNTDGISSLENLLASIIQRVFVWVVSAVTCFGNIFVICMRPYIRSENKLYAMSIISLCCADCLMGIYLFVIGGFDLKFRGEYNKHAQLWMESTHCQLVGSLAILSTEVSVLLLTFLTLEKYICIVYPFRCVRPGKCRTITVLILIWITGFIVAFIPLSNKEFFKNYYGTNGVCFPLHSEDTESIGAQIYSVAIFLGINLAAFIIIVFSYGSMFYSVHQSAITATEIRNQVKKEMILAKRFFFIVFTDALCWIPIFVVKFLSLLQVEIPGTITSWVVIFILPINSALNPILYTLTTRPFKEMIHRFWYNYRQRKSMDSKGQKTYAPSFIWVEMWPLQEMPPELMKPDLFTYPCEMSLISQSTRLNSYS
As to the kind of experiment: Agonist activity at RXFP1 receptor (unknown origin) expressed in HEK293 cells assessed as stimulation of cAMP production incubated for 30 mins by TR-FRET based HTRF assay relative to forskolin. The data set is classed as functional, cell-based. Background: cAMP levels reflect the balance of adenylyl cyclase and phosphodiesterase activity.

The target in data set [2] is T2, Relaxin receptor 1 (Homo sapiens, UniProt Q9HBX9).
T2 sequence (Q9HBX9 whole entry): T1 sequence (whole entry)
The data set is described as follows: Agonist activity at RXFP1 receptor in human THP1 cells assessed as stimulation of cAMP production incubated for 30 mins by HTRF assay. The data set is classed as functional, cell-based, THP-1.

Data set [3] in a line: Stimulation of VEGF gene expression in human THP1 cells assessed as change in VEGF mRNA level incubated for 2 hrs by quantitative real time RT-PCR method relative to control. The data set is classed as functional, cell-based. To be noted: THP-1. On the technique in general: Real-time PCR tracks product formation cycle by cycle.
Data set [4] deals with T2, Relaxin receptor 1. The data set is described as follows: Agonist activity at RXFP1 receptor (unknown origin) expressed in HEK293 cells assessed as stimulation of cAMP production incubated for 30 mins by TR-FRET based HTRF assay. The data set is classed as functional, cell-based.
Data set [5] deals with T1, Relaxin receptor 1 (Homo sapiens). The data set is described as follows: Agonist activity at RXFP1 receptor (unknown origin) expressed in HEK293 cells assessed as increase cell impedance at 250 to 750 nM measured every 10 to 30 secs for 1 hr by real time cell analyzer method. It counts as functional, cell-based.
Data set [6] deals with T3, Vasopressin V1b receptor (Homo sapiens) (UniProt P47901).
T3 sequence (whole entry): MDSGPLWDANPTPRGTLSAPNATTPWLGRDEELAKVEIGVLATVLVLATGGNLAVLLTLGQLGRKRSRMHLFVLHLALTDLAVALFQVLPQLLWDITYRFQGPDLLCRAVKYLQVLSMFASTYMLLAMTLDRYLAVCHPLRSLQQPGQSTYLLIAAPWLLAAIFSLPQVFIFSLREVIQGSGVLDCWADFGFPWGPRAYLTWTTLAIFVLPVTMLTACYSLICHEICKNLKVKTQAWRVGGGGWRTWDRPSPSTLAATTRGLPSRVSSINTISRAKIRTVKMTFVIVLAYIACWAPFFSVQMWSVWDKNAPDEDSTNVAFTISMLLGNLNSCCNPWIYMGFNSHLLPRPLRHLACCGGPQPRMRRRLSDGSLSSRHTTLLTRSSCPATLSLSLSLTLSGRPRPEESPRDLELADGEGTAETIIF
The data set is described as follows: Agonist activity at vasopressin receptor 1b (unknown origin) expressed in HEK293 cells assessed as stimulation of cAMP production incubated for 30 mins by HTRF assay relative to control. It counts as functional, cell-based.

For a further data set, the system named is HEK293. As to the kind of experiment: Cytotoxic activity against HEK293 cells assessed as reduction in cell viability by measuring ATP level incubated for 72 hrs by ATP cytotoxicity assay. The data set is classed as cell-based, Homo sapiens. To be noted: for pEC50: Homo sapiens, HEK293, 72 h, read-out: EC50.
Data set [7] deals with T4, Relaxin receptor 2 (Homo sapiens, UniProt Q8WXD0). The data set is described as follows: Agonist activity at RXFP2 receptor (unknown origin) expressed in HEK293 cells assessed as stimulation of cAMP production incubated for 30 mins by HTRF assay. The data set is classed as functional, cell-based.
Data set [8] is described as follows: Cytotoxic activity against HEK293 cells assessed as reduction in cell viability by measuring ATP level incubated for 72 hrs by ATP cytotoxicity assay relative to control. It counts as cell-based. To be noted: human, read-out: %max.
Data set [9] can be described thus: Solubility in PBS buffer. The data set is classed as physicochemical.
The next data set deals with T5, Vasopressin V1b receptor (Homo sapiens, UniProt P47901).
T5 sequence (P47901 whole entry): T3 sequence (whole entry)
As to the kind of experiment: Agonist activity at vasopressin receptor 1b (unknown origin) expressed in HEK293 cells assessed as stimulation of cAMP production incubated for 30 mins by HTRF assay. It counts as functional, cell-based.

Data set [10] addresses T4, Relaxin receptor 2. The data set is described as follows: Agonist activity at RXFP2 receptor (unknown origin) expressed in HEK293 cells assessed as stimulation of cAMP production incubated for 30 mins by HTRF assay relative to control. It counts as functional, cell-based.
Data set [11] is described as follows: Half life in mouse liver microsomes. The data set is classed as ADME. Background: Microsomes from liver hold many membrane-bound enzymes, among them those of drug oxidation.

pEC50: −log10 of the molar value. ≈ marks a conversion by molar mass, not a printed value. Calls of active or inactive are those of the source. A value given as a limit tells only on which side of the number the result lay.

The values below come from ChEMBL document CHEMBL3714716, “Modulators of the relaxin receptor 1” (2015).

T4 sequence (Q8WXD0 whole entry): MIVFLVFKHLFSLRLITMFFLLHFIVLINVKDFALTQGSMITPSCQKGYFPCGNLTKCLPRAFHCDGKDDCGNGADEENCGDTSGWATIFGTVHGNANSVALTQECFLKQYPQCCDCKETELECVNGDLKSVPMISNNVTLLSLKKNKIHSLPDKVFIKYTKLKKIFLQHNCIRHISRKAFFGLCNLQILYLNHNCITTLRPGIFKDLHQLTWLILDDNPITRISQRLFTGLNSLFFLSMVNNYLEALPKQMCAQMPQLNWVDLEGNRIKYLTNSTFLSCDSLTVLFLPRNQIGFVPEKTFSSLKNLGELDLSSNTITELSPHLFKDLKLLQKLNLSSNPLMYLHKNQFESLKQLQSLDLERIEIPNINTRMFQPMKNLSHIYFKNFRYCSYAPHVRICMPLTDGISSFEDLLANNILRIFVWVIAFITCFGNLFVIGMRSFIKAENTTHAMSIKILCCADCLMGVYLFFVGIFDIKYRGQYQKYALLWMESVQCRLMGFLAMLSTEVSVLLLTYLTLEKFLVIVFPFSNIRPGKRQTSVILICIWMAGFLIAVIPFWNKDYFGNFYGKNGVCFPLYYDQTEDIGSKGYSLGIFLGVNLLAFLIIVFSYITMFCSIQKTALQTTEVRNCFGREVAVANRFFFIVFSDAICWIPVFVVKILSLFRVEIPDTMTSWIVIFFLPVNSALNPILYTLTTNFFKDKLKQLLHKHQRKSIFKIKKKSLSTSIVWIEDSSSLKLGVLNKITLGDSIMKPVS

In general, pEC50 refers to the negative decadic logarithm of the EC50, by convention in mol/L. As a reminder, the AC50 is the concentration giving half of the maximal activity seen. With `CCCCOc1ccccc1C(=O)Nc1ccccc1C(=O)Nc1cccc(S(=O)(=O)C(F)(F)F)c1`, the %max in [1] stood at 98%. For the same compound, the pEC50 at Relaxin receptor 1 [2] is 6.91. In addition, the fold change (FC) in data set [3] turned out to be 1.6. Also, the AC50 at Relaxin receptor 1 [4] (read-out: AC50) was 0.047 µM. In addition, the result in data set [5] was Active.
Broadly, the solubility is the concentration that dissolves in the medium under given conditions. For the compound `O=C(Nc1ccc2cc[nH]c2c1)c1ccccc1NC(=O)C1CCCCC1`, the “%max” value in data set [1] is “inactive”. The values for the %max (in data set [6]; at Relaxin receptor 2 [10]) were less than 30% and 47%, respectively. Moreover, in the data set with HEK293 (hek293), the EC50 entry is “Non-toxic”. The AC50 at Relaxin receptor 2 [7] (read-out: AC50) was 9.4 µM; on Relaxin receptor 1 [4] (hek293), “Not Active”; on Vasopressin V1b receptor, “Not Active”. In addition, the Emax at 72 h in data set [8] is less than 30%. Further, the solubility in [9] amounted to 1.7 µM (≈ 0.614 µg/mL).
As a reminder, the half-life is the time needed for the level to fall by half in the phase considered. Lower therefore signals fast loss. Turning to `O=C(Nc1ccccc1C(=O)Nc1cccc(C(F)(F)F)c1)c1cccs1`, the %max was 88% in data set [1], less than 30% in [6] and less than 30% on Relaxin receptor 2 [10]. Further, the AC50 result was “Not Active” on Relaxin receptor 2 [7] (hek293), 1.88 µM on Relaxin receptor 1 [4] (read-out: AC50) and “Not Active” on Vasopressin V1b receptor. The Emax at 72 h in data set [8] is -78%. The solubility in data set [9] amounted to 3.3 µM (≈ 1.29 µg/mL). The compound further gave a half-life in data set [11] of 1.67 h.
Turning to `O=C(Nc1ccccc1C(=O)Nc1cccc(C(F)(F)F)c1)c1ccncc1`, the values for the %max (in data set [1]; in [6]; at Relaxin receptor 2 [10]) were 51%, less than 30% and less than 30%, respectively. In addition, the pEC50 with HEK293 was 5.03. Also, the values for the AC50 result on Relaxin receptor 2 [7] (hek293), at Relaxin receptor 1 [4] (read-out: AC50) and on Vasopressin V1b receptor were “Not Active”, 7.47 µM and “Not Active”, respectively. For the same compound, the Emax at 72 h in data set [8] is 83%. The same compound gave a solubility in [9] of 17 µM (≈ 6.55 µg/mL).
With `O=C(Nc1ccccc1C(=O)Nc1cccc(C(F)(F)F)c1)c1ccc2c(c1)OCO2`, the %max in data set [1] was 81%; in data set [6], less than 30%; on Relaxin receptor 2 [10], 54%. The pEC50 with HEK293 is 5.43. Besides, the AC50 on Relaxin receptor 2 [7] (read-out: AC50) is 3.34 µM; at Relaxin receptor 1 [4] (read-out: AC50), 6.66 µM; at Vasopressin V1b receptor, “Not Active”. Also, the Emax at 72 h in data set [8] was -31%. This compound showed a solubility in data set [9] of 2.9 µM (≈ 1.24 µg/mL).
Take `O=C(Nc1ccccc1C(=O)Nc1cccc(C(F)(F)F)c1)c1cccnc1`: the figures for the %max (in [1]; in data set [6]; on Relaxin receptor 2 [10]) were 95%, less than 30% and less than 30%, respectively. For the same compound, the pEC50 in the data set with HEK293 was 5.03. Further, the AC50 result at Relaxin receptor 2 [7] (hek293) is “Not Active”; on Relaxin receptor 1 [4] (read-out: AC50) it was 5.93 µM; on Vasopressin V1b receptor it was “Not Active”. In data set [8], the Emax at 72 h came out at 85%. Besides, in [9], the solubility is 7 µM (≈ 2.7 µg/mL).
